One block for each compound: values may come before it. Calls of active or inactive are those of the source.
Experiments:
INS1 = assay: INS-1E survival protection against cytokine death – cell-based, luminescence, retest, dose response (AID 449756); assay type: functional; settings: Rattus norvegicus;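 note: cell death triggered by IL-1 beta plus TNF-alpha plus IFN-gamma mixture; protective hits raise ATP signal compared with cytokine alone wells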
Cytochrome P450 2D6 = Cytochrome P450 2D6 (Homo sapiens, UniProt P10635);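 note: CYP2D6 member of a cytochrome P450 panel assay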
Chain of Cytochrome P450 2D6 (P10635 whole entry): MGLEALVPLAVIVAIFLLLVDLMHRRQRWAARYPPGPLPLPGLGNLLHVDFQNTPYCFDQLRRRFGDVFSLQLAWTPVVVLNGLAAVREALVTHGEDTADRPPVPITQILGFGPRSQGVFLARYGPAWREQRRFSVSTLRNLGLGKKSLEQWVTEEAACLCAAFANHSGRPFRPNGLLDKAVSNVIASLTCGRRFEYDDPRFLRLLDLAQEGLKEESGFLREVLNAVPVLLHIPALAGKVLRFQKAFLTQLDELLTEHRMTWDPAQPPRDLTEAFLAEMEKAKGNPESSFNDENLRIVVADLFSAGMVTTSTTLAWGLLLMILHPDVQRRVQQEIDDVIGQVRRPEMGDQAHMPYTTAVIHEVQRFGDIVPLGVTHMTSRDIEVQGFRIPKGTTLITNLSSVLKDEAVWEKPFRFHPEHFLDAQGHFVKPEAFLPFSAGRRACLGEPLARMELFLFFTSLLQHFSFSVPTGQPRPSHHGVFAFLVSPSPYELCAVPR

Cytochrome P450 2C19 = Cytochrome P450 2C19 (Homo sapiens, UniProt P33261); assay: Cytochrome panel assay with activity outcomes. Panel member name: p450-cyp2c19 Compounds with AC50 equal or less than 10 uM are considered active; assay type: functional
Chain of Cytochrome P450 2C19 (P33261 whole entry): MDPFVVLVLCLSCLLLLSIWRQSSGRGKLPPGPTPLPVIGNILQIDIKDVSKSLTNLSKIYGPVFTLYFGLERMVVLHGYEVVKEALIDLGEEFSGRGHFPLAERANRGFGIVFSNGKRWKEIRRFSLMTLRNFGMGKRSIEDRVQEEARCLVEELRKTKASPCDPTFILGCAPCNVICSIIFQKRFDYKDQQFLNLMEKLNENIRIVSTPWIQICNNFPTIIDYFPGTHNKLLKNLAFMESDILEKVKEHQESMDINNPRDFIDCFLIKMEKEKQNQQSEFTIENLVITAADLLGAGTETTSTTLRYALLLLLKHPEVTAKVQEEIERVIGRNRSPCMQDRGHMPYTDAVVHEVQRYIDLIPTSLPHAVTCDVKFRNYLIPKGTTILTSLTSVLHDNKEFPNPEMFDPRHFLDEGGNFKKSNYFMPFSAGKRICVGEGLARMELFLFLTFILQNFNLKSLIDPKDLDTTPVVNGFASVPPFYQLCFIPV

[1] = NIH3T3 cell viability loss – ATP luminescence, mouse fibroblasts, counter-screen, dose response (AID 2010); assay type: functional, cell-based;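 note: cells exposed to compound for about 90 hours before reading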
[2] = Trypanosoma cruzi growth suppression in host cells – NIH3T3 host cells, beta-gal luminescence, confirmation (AID 2044); assay type: functional, cell-based;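 note: intracellular parasites grown in NIH/3T3 mouse fibroblasts as host cells; luminescent beta-galactosidase reporter signal from transgenic T. cruzi replicating inside host cells; inhibitors lower the luminescence signal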
[3] = biological target: T1, Rac GTPase-activating protein 1 (Homo sapiens, UniProt Q9H0H5); assay: blockers of MgcRacGAP-driven Rac1 GTP hydrolysis – biochemical, ADP Hunter fluorescence, primary and confirmatory, confirmation (AID 624330); assay type: functional
T1 sequence (Q9H0H5 whole entry): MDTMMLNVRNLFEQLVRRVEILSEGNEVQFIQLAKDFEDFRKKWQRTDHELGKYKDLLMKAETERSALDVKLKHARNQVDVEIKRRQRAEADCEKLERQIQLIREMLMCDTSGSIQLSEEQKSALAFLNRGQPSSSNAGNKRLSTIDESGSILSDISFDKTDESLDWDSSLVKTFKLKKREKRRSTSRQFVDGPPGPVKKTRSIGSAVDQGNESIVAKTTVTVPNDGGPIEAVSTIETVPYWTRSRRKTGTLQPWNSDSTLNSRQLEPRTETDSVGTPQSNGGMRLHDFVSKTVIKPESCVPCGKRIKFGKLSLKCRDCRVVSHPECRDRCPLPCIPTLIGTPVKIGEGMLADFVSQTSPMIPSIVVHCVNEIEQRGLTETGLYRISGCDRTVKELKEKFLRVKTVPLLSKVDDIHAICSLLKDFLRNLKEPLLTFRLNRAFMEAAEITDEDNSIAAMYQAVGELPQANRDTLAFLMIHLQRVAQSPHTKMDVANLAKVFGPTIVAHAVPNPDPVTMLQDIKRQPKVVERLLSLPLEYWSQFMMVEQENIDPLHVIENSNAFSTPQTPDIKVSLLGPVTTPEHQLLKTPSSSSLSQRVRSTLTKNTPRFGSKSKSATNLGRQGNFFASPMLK

Cytochrome P450 3A4 = Cytochrome P450 3A4 (Homo sapiens, UniProt P08684);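 note: CYP3A4 tested as one member of a cytochrome P450 panel screen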
Chain of Cytochrome P450 3A4 (P08684 whole entry): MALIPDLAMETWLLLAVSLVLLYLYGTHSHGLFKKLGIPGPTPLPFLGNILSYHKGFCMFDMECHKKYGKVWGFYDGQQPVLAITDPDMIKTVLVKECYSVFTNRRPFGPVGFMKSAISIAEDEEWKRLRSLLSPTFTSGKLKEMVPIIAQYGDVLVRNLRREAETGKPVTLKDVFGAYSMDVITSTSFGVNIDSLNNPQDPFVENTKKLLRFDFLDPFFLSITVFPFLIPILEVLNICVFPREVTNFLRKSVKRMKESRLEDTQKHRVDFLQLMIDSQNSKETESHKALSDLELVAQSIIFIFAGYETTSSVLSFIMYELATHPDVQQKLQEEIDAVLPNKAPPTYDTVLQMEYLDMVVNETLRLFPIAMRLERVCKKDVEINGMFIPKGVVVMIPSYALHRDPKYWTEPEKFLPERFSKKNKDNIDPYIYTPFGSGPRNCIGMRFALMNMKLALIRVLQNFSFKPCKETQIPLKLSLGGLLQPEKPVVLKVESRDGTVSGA

[4] = biological target: T2, Corticotropin-releasing factor receptor 2/Corticotropin-releasing factor-binding protein (Homo sapiens, UniProt P24387+Q13324); assay: activators of CRF receptor 2 with binding protein – uHTS hits, confirmation (AID 602473); assay type: functional; settings: read-out: EC50_Mean
T2 sequence (Q13324 whole entry): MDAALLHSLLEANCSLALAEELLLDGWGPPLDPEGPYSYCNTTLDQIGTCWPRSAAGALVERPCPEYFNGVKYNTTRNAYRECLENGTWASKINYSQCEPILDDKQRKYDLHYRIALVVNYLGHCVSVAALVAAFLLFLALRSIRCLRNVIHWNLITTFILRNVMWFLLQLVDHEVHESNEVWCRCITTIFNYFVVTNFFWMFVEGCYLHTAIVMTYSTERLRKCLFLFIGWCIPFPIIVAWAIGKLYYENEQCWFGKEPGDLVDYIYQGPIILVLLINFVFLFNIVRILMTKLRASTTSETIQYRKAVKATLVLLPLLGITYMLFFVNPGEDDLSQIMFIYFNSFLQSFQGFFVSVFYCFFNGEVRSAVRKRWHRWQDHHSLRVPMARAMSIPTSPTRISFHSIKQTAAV
T2 sequence (P24387 whole entry): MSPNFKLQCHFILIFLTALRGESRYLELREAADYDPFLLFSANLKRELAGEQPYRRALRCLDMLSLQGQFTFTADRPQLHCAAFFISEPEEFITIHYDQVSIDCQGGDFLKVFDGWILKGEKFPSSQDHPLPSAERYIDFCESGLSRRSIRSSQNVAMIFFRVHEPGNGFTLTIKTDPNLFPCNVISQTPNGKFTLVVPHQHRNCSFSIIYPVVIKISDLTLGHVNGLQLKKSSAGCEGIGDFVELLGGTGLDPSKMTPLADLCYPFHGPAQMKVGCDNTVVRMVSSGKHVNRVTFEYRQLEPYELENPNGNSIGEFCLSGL

- AC50 (Cytochrome P450 2D6): 20 µM (inconclusive)
- AC50 (Cytochrome P450 2C19; read-out: AC50): 25.1 µM (inconclusive)
Compound: COCCNc1ncnc2ccc(-c3ccc(N(C)C)cc3)cc12

- AC50 (Cytochrome P450 2D6): 15.8 µM (inconclusive)
Compound: CCc1nnc(NC(=O)C2Cc3ccccc3CN2S(=O)(=O)c2ccc(C)cc2)s1 (centres undefined)

- IC50 [3]: 118 µM (active)
Compound: COc1ccc(C(=O)CCC(=O)Nc2cc(Cl)c(O)c(Cl)c2)cc1

- AC50 (Cytochrome P450 2D6): 31.6 µM (inconclusive)
- AC50 (Cytochrome P450 2C19; read-out: AC50): 7.08 µM (inconclusive)
Compound: Clc1ccc(-c2nc3ncccn3c2Nc2ccc3c(c2)OCCO3)cc1

- IC50 [3]: 41.4 µM (active)
Compound: Clc1ccc(CNc2ccc(N3CCN(Cc4ccccc4)CC3)cc2)cc1

- AC50 (Cytochrome P450 3A4): 3.98 µM (inconclusive)
Compound: C#CCCCO/N=C1/[C@H]2O[C@@H]2[C@@H](O)[C@H]2[C@H]1CCn1c(=O)n([C@@H](CC)c3ccccc3)c(=O)n12

- AC50 (Cytochrome P450 2C19; read-out: AC50): 39.8 µM (inconclusive)
Compound: CCNc1ncc2nc(CCc3ccccc3)c(=O)n(C[C@H]3CCCO3)c2n1

- IC50 [3]: 50.5 µM (active)
Compound: O=C(Oc1ccc2c(c1)OCO2)c1ccncc1

- AC50 (Cytochrome P450 2D6): 20 µM (inconclusive)
Compound: COc1ccccc1CN1CCCC2(CCNCC2)C1

- EC50 [4]: 4.2 µM (active)
Compound: Cc1ccc(C(=O)NC(=S)NNC(=O)c2ccc([N+](=O)[O-])cc2)cc1

- AC50 (Cytochrome P450 2D6): 1 µM (inconclusive)
Compound: Cc1ccc(SCCCn2cnc3ccccc3c2=O)cc1

- AC50 (Cytochrome P450 2D6): 39.8 µM (inconclusive)
- AC50 (Cytochrome P450 2C19; read-out: AC50): 39.8 µM (inconclusive)
Compound: CCc1cccc2nc3c(c([Si](C)(C)C)c12)Cn1c-3cccc1=O

- EC50 [4]: > 53 µM (inactive)
Compound: C=CCN1C(c2cccc(C(F)(F)F)c2)=CS/C1=C(/C#N)c1nnc(N2CCOCC2)n1-c1ccccc1

- AC50 (Cytochrome P450 2C19; read-out: AC50): 7.94 µM (inconclusive)
Compound: CCC(=O)Nc1ccc2c(c1)C(=O)c1ccccc1C2=O

- AC50 (Cytochrome P450 2C19; read-out: AC50): 31.6 µM (inconclusive)
Compound: Cc1cc(NC(=O)c2cccc(F)c2)no1

- AC50 (Cytochrome P450 2D6): 3.16 µM (inconclusive)
- AC50 (Cytochrome P450 2C19; read-out: AC50): 0.0126 µM (inconclusive)
Compound: COc1cccc([C@@H]2Oc3ccc(OC)cc3/C(=N/O[C@@H](C)CN3CCCCc4nc(C)c(C)cc43)[C@@H]2O)c1

- AC50 (Cytochrome P450 2D6): 12.6 µM (inconclusive)
Compound: COc1ccc(NC(=O)N2CC3(CCN(C(C)=O)CC3)C2)cc1

- AC50 (Cytochrome P450 2D6): 17.8 µM (inconclusive)
Compound: O=C1/C(=C\c2ccccn2)SC(=S)N1Nc1ncc(C(F)(F)F)cc1Cl

- AC50 (Cytochrome P450 3A4): 39.8 µM (inconclusive)
Compound: Cc1ccc(S(=O)(=O)/C=C\C#N)cc1

- IC50 [3]: 133 µM (active)
Compound: COc1cc(CN2CCC(C(=O)NC3CCCC3)CC2)ccc1O

- AC50 (Cytochrome P450 2D6): 22.4 µM (inconclusive)
- AC50 (Cytochrome P450 2C19; read-out: AC50): 7.94 µM (inconclusive)
Compound: CC(C)(C)c1ccc(C(=O)NCCC(=O)NCc2ccco2)cc1

- AC50 (Cytochrome P450 3A4): 3.16 µM (inconclusive)
Compound: c1ccc(C2=NN[C@@H]3c4ccccc4-c4ccccc4N3C2)cc1

- EC50 [4]: > 53 µM (inactive)
Compound: N#C/C(=C(/O)COC(=O)c1ccccc1O)c1nc2ccccc2s1

- EC50 [4]: 7.87 µM (active)
Compound: CCOC(=O)C1(CC2CCCCO2)CCN(Cc2cc3ccccc3[nH]2)CC1 (centres undefined)

- IC50 [3]: 65.1 µM (active)
Compound: COc1ccc(NC2CCCN(C(=O)CCN3Cc4ccccc4C3=O)C2)cc1 (centres undefined)

- IC50 [3]: 19.5 µM (active)
Compound: Cn1c(=O)c2nc(S)n(Cc3ccccc3)c2n(C)c1=O

- AC50 (Cytochrome P450 2C19; read-out: AC50): 0.0355 µM (inconclusive)
Compound: Cc1ccc(N(C(=O)C(F)(F)F)C(C(=O)NC2CCCCC2)c2cccs2)cc1C (centres undefined)

- IC50 [3]: 342 µM (active)
Compound: CCOC(=O)C1CCN(Cc2cccc(Oc3ccccc3)c2)CC1

- AC50 (Cytochrome P450 2D6): 39.8 µM (inconclusive)
- AC50 (Cytochrome P450 2C19; read-out: AC50): 28.2 µM (inconclusive)
Compound: CCCNC1=NC(=O)N(C)C(=O)/C1=N/O

- IC50 [3]: 75.2 µM (active)
Compound: Brc1csc(/C=N\c2ccc3c(c2)OCCOCCOCCOCCO3)c1

- IC50 [3]: 25.8 µM (active)
Compound: C=CCN1C(=O)CS/C1=N/c1ccc(O)cc1

Continued, compound first:

Compound: CC1(C(=O)OCC(=O)N2c3ccccc3Sc3ccccc32)CC1(Cl)Cl (centres undefined)
- AC50 (INS1): 37.4 µM (active)

Compound: O=C1N(Cc2cccc(Cl)c2)C[C@@H]2C[C@@H](c3c[nH]c4ccccc34)N3CCC[C@@]123
- EC50 [1]: > 60 µM (inconclusive)
- EC50 [2]: 2 µM (active)

Compound: CCCCOC(=O)Nc1nnc(C(C)C)s1
- EC50 [1]: 12.9 µM (active)
- EC50 [2]: 1.26 µM (active)

Compound: Cc1cccc(C(=O)NCCCN(C)CCCNC(=O)c2cccc(C)c2)c1
- EC50 [1]: > 60 µM (not active)
- EC50 [2]: 0.894 µM (active)

Compound: CCOC(=O)C1=C(N)Oc2ccc3ccccc3c2C1c1cccnc1 (centres undefined)
- EC50 [1]: > 60 µM (not active)
- EC50 [2]: 0.243 µM (active)

Compound: COc1ccc(-c2c[n+](-c3ccc(OC)cc3)c3n2-c2ccccc2CC3)cc1
- AC50 (INS1): 0.786 µM (active)

Compound: Cc1c(Cl)cccc1NC(=O)CCCn1cnc([N+](=O)[O-])n1
- EC50 [1]: > 60 µM (not active)
- EC50 [2]: 0.131 µM (active)

Compound: COc1ccccc1C1NC=C([N+](=O)[O-])C=C1[N+](=O)[O-] (centres undefined)
- EC50 [1]: > 60 µM (not active)
- EC50 [2]: 1.73 µM (active)

Compound: Cc1ccc(C(=O)NC(=S)Nc2ccc(CN3CCCCC3)cc2)c(C)c1
- EC50 [1]: 15.8 µM (active)
- EC50 [2]: 0.98 µM (active)

Compound: CC(C)(CNc1ccc(S(=O)(=O)C(F)(F)F)cc1[N+](=O)[O-])N1CCOCC1
- EC50 [1]: 4.83 µM (active)
- EC50 [2]: 2.42 µM (active)

Compound: O=[As](O)(O)c1ccc2nc3cc([As](=O)(O)O)ccc3nc2c1
- AC50 (Cytochrome P450 2C19): inconclusive

Compound: FC(F)(F)c1n[nH]c(SCc2ccc(Cl)cc2)n1
- AC50 (Cytochrome P450 2C19; read-out: AC50): 2.51 µM (inconclusive)

Compound: Cc1ccc(S(=O)(=O)NCCn2cnc([N+](=O)[O-])n2)cc1
- EC50 [1]: > 60 µM (not active)
- EC50 [2]: 0.116 µM (active)

Compound: CSCCC(NC(=O)c1ccco1)C(=O)OC(C)C(=O)NC(=O)NC1CCCCC1 (centres undefined)
- EC50 [4]: 0.832 µM (active)

Compound: CN1/C(=C\C(S)=Nc2ccccc2)C(C)(C)c2ccccc21
- AC50 (INS1): 8.05 µM (active)

Compound: CCOC(=O)C1CCN(C(=O)C2CCN(S(=O)(=O)N3CCCC3)CC2)CC1
- AC50 (Cytochrome P450 2C19): inconclusive

Compound: CCCNC(=O)c1ccc(N2CCC3(CC2)CC(c2cccc(Br)c2)=NO3)c(NC(=O)c2ccccc2)c1
- EC50 [1]: > 60 µM (not active)
- EC50 [2]: 2.5 µM (active)

Compound: CN1CCc2c(sc(/N=C/c3cccs3)c2C(N)=O)C1
- EC50 [4]: > 53 µM (inactive)

Compound: COc1cccc(C(=O)Oc2c(Br)cc(Br)cc2/C=N/NC(=O)c2cc(C)[nH]n2)c1
- EC50 [1]: 8.01 µM (active)
- EC50 [2]: 0.942 µM (active)
- AC50 (INS1): 3.11 µM (active)

Compound: C/C(Cn1nnc([N+](=O)[O-])n1)=N\NC(=O)c1ccccc1Cl
- EC50 [1]: > 60 µM (not active)
- EC50 [2]: 0.47 µM (active)
- AC50 (INS1): 10.5 µM (active)

Compound: COc1ccccc1/C=N/OCc1cc(C(C)=O)ccc1OC
- AC50 (INS1): 44.6 µM (active)

Compound: c1ccc(Nc2nc(-c3ccncc3)cs2)cc1
- EC50 [1]: > 60 µM (not active)
- EC50 [2]: 0.544 µM (active)

— ChEMBL document CHEMBL1201862, “PubChem BioAssay data set” (2004)
